This passage reports EC50 results from PMC6748385 (Toxicology and applied pharmacology, 2019).

What all share (experiment): ERE-luciferase transactivation, HELN-zfER cells
Holding throughout (type): cell-based

Assay [1] concerns the target T1, zfERα (Esr1) (Danio rerio, UniProt P57717).
T1 sequence (P57717 1-569): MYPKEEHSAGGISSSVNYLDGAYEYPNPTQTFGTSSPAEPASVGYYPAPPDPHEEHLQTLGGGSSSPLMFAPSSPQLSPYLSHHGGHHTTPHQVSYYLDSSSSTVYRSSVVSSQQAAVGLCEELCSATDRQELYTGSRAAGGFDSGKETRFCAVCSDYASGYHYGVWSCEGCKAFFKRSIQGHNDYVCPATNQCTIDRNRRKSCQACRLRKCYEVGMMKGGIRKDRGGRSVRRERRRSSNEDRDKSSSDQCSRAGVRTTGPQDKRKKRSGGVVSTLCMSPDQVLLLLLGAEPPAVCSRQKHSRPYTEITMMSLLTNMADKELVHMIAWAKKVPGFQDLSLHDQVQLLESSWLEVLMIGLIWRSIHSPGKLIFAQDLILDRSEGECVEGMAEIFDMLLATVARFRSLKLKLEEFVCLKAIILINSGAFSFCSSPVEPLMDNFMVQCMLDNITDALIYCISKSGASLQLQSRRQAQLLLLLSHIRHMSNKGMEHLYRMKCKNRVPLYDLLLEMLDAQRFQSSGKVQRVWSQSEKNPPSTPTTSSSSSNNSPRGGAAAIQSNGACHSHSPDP

For assay [2], the target named is zfERβ2 (Esr2a) (Danio rerio, UniProt Q7ZU32).
The target in assay [3] is T2, zfERβ1 (Esr2b) (Danio rerio, UniProt Q5PR29).
T2 sequence (Q5PR29 1-592): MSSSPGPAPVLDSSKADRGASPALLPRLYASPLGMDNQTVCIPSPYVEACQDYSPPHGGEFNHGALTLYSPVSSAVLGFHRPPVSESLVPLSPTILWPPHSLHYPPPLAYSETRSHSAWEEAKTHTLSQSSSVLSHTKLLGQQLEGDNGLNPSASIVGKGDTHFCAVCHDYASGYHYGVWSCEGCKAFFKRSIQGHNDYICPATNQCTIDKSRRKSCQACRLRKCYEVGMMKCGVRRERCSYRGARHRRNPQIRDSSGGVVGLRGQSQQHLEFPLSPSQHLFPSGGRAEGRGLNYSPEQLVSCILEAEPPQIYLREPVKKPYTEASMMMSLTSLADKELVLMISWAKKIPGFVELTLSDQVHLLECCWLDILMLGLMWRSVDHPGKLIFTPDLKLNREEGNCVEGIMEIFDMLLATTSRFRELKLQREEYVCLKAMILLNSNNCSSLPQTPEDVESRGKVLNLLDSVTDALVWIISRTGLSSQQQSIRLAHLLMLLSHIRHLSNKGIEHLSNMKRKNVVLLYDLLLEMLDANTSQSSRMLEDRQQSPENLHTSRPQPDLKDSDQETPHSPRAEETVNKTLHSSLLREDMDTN

Like-named read-outs stand apart in the source and are kept apart here.

Sequence of zfERβ2 (Esr2a) (Q7ZU32 1-553): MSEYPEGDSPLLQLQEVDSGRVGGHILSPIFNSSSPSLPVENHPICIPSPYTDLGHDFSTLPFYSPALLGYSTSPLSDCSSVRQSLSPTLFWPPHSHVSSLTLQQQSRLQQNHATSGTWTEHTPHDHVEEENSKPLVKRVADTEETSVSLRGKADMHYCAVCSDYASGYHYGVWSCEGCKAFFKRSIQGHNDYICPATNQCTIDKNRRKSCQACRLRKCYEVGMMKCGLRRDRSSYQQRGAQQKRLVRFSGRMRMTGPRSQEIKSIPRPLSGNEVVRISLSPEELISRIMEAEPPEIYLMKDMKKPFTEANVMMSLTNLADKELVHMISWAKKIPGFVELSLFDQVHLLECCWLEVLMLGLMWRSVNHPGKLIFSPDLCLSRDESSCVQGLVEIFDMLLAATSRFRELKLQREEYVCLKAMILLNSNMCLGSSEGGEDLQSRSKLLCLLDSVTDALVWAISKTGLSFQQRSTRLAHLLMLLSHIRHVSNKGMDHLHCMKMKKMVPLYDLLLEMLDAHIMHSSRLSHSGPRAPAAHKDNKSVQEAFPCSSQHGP

In the case of `C[C@]12CC[C@@H]3c4ccc(O)cc4CC[C@H]3[C@@H]1C[C@H]1OC(=O)C[C@]12O` [16α-LE2, 3,17-Dihydroxy-19-nor-17α-pregna-1,3,5(10)-triene-21,16α-lactone], the EC50 in assay [1] was 0.00065 ± 0.0001 µM; in assay [2] it was 0.0695 ± 0.0175 µM; in assay [3], 0.271 ± 0.045 µM.

`Oc1ccc(C(c2ccc(O)cc2)(C(F)(F)F)C(F)(F)F)cc1` [BPAF]: the EC50 in assay [1] (read-out: zfERα, agonist mode, 16 h, 28°C) worked out at 0.084 ± 0.027 µM; in assay [2] (read-out: zfERβ2, agonist mode, 16 h, 28°C) it was 0.897 ± 0.268 µM; in assay [3] (read-out: zfERβ1, agonist mode, 16 h, 28°C), 0.758 ± 0.131 µM.

Take `CC(C)(c1ccc(O)cc1)c1ccc(O)cc1` [BPA]: the EC50 was determined as 0.469 ± 0.042 µM in assay [1], 2.8 ± 0.562 µM in assay [2] and 3.33 ± 0.381 µM in assay [3].
